Values of other authors, collected in US20070128276A1 (PANACEA BIOTEC LTD., priority 1999, published 2007).

What was measured:
[1] = animal studies
[2] = tested on: renal prostaglandin synthesis; conditions: rats
yeast-induced fever = conditions: rats with yeast-induced fever
prostaglandin synthesis = conditions: in vitro

CS(=O)(=O)Nc1ccc([N+](=O)[O-])cc1Oc1ccccc1 [Nimesulide]
oral drug absorption: nearly complete | effect of concomitant food on absorption (oral, concomitant administration of food): may decrease the rate, but not the extent of absorption | ulcerogenicity versus reference NSAIDs [1]: less ulcerogenic than aspirin, indomethacin, naproxen, piroxicam and ibuprofen | effect on renal prostaglandin synthesis [2]: little effect | antipyretic potency versus reference drugs (yeast-induced fever): superior antipyretic potency to indomethacin, ibuprofen, aspirin and paracetamol (acetaminophen) | bound to plasma proteins (plasma proteins): 99% | inhibition of prostaglandin synthesis (prostaglandin synthesis): relatively weak inhibitor
